According to publication PMC12186255, “Discovery and Characterization of Small Molecule Inhibitors Targeting Exonuclease 1 for Homologous Recombination-Deficient Cancer Therapy” (ACS Chemical Biology, 2025):

Columns and labels:
MDA-MB-468 = test: Cell line drug profiling, CellTiter Glo; type: cell-based, human; details: Homo sapiens, MDA-MB-468, 72 h
Method: We tested the cytotoxicity of representative compounds from the seven EXO1i scaffolds against a subset of the NCI-60 cell line panel along with three additional pancreatic cell lines (FG, AsPC1, and CaPan2). In general, cells were seeded in 384-well tissue culture-treated plates overnight and treated with various concentrations of each hit compound (a serial 3-fold dilution from 50 μM for all tested hits). Each concentration was performed in duplicate. Cell viability was then measured by CellTiter Glo (Promega) after 72 h of treatment.

MDA-MB-436 cells [1] = test: S-phase PARylation immunofluorescence; type: cell-based, human; details: MDA-MB-436 BRCA1− and BRCA1+ cells, 10 or 50 μM overnight
Method: (b) Quantification of the relative PARylation per nucleus from panel a. […] Strong PARylation foci are observed in BRCA1– cells. […] (d) Quantification of the relative PARylation per nucleus from panel c.
(§1) Cells were seeded at a density of 3× 10^5 cells per well in 12-well plates with preplaced coverslips and treated with or without various inhibitor treatments overnight. Cells were then incubated with EdU for 30 min before collection. For PARylation analysis, cells were permeabilized with 0.1% Triton X100, fixed with 4% paraformaldehyde, blocked with the Image-iT FX signal enhancer (Invitrogen), and incubated (1.5 h, RT) with the indicated primary antibodies (PAR/pADPr Antibody; Biotechne). The cells were then washed with PBS buffer and incubated (1 h, RT) with the corresponding secondary antibodies (1:200, Invitrogen). Subsequently, the fixed cells were incubated with the Click-iT reaction mix (100 mM Tris-HCl pH 8.5, 10 mM azide-Alexa 488, 1 mM CuSO4, and 100 mM ascorbic acid (Sigma-Aldrich)) for 1 h at RT. The slides were then washed with the PBS buffer, counterstained with DAPI, and analyzed with a fluorescence microscope (Zeiss Observer Z1). […] The slides were then washed with the PBS buffer, incubated with the Click-iT reaction mix for EdU as aforementioned, counterstained with DAPI, and analyzed with a fluorescence microscope (Zeiss Observer Z1).

MDA-MB-231 cells = test: Gel-based phospho-RPA end resection assay; type: cell-based, human; details: inhibitor overnight then 2 μM CPT 2 h, C5 10 μM
Method: The levels of RPA32 and phosphorylated RPA32 (S33) were analyzed by Western blotting using antibodies against RPA32 and phosphorylated RPA32 (S33). The total level of tubulin was used as a control. (b) Ratio of P-RPA:RPA levels calculated from panel a. […] U2OS cells carrying a GFP reporter for HR were infected with adenovirus expressing the I-SceI restriction enzyme. […] U2OS cells carrying a GFP reporter for HR were infected with adenovirus expressing the I-SceI restriction enzyme. […] For panels c and d, after 48 h, the cells were harvested, and the GFP-positive cells were analyzed by flow cytometry. Values are the mean ± S.D. of three independent experiments.
The treated cells were then lysed in the SDS-PAGE sample buffer, and the lysate was separated by SDS-PAGE prior to immobilization on a nitrocellulose membrane and Western blotting. Antibodies against unphosphorylated RPA, S33-P-RPA2, and tubulin were subsequently assayed according to the manufacturer’s recommendations. The ratio of P-RPA/RPA levels were quantified via ImageJ.

U2OS cells = test: Homologous recombination assay (HR-GFP reporter); type: cell-based, human; details: I-SceI, 0, 10, 50, 100 μM, 48 h
Method: Following viral infection, the culture medium was replaced with a fresh medium containing small molecule inhibitors. […] Subsequently, cells were harvested, and GFP-positive frequencies indicative of HR repair events were quantified using a CyAn ADP Analyzer (Beckman Coulter, Inc.). Experiments were performed in triplicate, and data are presented as mean ± standard deviation (S.D.).

FEN1 = target: T1, FEN1 (Homo sapiens, UniProt P39748); test: Analogous FRET-based counter screen with purified FEN1; type: biochemical; details: FRET-based assay, maximum inhibitor concentration 100 μM
T1 construct: made in house
T1 sequence (P39748 whole entry): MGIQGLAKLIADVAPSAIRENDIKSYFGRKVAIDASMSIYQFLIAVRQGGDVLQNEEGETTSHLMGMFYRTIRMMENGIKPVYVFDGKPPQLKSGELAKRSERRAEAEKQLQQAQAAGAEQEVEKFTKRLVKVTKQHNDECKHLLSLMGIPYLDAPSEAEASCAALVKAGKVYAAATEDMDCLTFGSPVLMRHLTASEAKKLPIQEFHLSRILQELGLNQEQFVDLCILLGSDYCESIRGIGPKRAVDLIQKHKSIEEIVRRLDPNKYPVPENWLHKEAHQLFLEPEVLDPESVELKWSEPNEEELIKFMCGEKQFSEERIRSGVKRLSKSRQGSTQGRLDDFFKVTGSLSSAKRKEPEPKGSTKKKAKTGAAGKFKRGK
Method: Data were normalized by subtracting the relative fluorescence unit (RFU) of the blank sample from that of each EXO1-containing reaction. The relative activity of individual compounds was subsequently calculated by setting the corrected RFU of EXO1 with DMSO as 100% and comparing the corrected RFU for each condition to the DMSO value. Each assay was performed by sequentially adding experimental compounds, the EXO1 enzyme, and the DNA substrate to minimize starting differences. […] Following IC50 screening, an analogous FRET-based assay was performed using purified FEN1 to assess the EXO1 specificity of each compound.
For subsequent hit confirmation, 84 compounds from the primary screen were picked from our internal stock and subjected to a dose-dependent response assay starting at 100 μM with 3-fold serial dilution. To analyze the data from the dose-dependent response assay, IC50 values for each hit were calculated through nonlinear regression analysis using GraphPad Prism 10 (GraphPad Software, Inc.). […] Subsequently, a counter screen was performed to eliminate potential false-positive hits. To accomplish this, we established an analogous FRET assay using the purified FEN1 enzyme in place of EXO1.

MDA-MB-436 cells [2] = test: γ-H2AX immunofluorescence and Western blot (DSB burden); type: cell-based, human; details: MDA-MB-436 parental (BRCA1-deficient) cells, 10 or 50 μM, overnight/24 h
Method: (b) Quantification of the relative γ-H2AX per nucleus from panel a. […] The intensity of the γ-H2AX bands correlates with the level of DSBs observed in the immunofluorescence images in panel a. […] Strong γ-H2AX foci are observed, indicating an increased burden of DSBs. […] (e) Quantification of the relative γ-H2AX per nucleus is depicted in panel d. […] The intensity of the γ-H2AX bands correlates with the level of DSBs observed in the immunofluorescence images in panel d.
as §1, with “The cells were then washed with PBS buffer and incubated (1 h, RT) with the corresponding secondary antibodies (1:200, Invitrogen). Subsequently, the fixed cells were incubated with the Click-iT reaction mix (100 mM Tris-HCl pH 8.5, 10 mM azide-Alexa 488, 1 mM CuSO4, and 100 mM ascorbic acid (Sigma-Aldrich)) for 1 h at RT.” left out

Row | Structure (SMILES) | IC50 (MDA-MB-468) [µM] | S-phase PARylation (MDA-MB-436 cells [1]) | CPT-induced P-RPA levels (DNA end resection) (MDA-MB-231 cells) | HR frequency (GFP-positive cells) (U2OS cells) | IC50 (FEN1) [µM] | γ-H2AX levels (unresolved DSBs) (MDA-MB-436 cells [2])
1 | Cc1cccc(N2CCN(c3ccc(NS(=O)(=O)c4ccccc4)c(C(=O)O)c3)CC2)c1C [F684] | 23.6 | additive effect | significantly reduced | inhibition of HR that increased with dose | > 100 | significant increase
2 | COC(=O)c1nc(-c2ccc(OC)cc2)nc(O)c1O [C200] | > 50 | no effect | significantly reduced | no significant changes | > 100 | no effect
